# Assay results taken from patent US20060235062A1, “Novel heterocyclic analogs of diphenylethylene compounds” (THERACOS, INC., priority 2002, published 2006).
# Read-outs that look alike come from different tables or passages of the source.
# Columns and labels:
# HepG2 cells = assay: Glycogen synthesis in HepG2 cells; type: cell-based; settings: HepG2, absence of insulin
# SJL-/J mice = assay: Experimental allergic encephalomyelitis (EAE) in mice; type: in vivo; settings: 200 μg once daily subcutaneous, FIG. 14
# ob/ob mice [1] = assay: Liver enzymes AST/GOT and ALT/GPT in sera of ob/ob mice; type: in vivo; settings: 21 days, orally 50 mg/kg, vs untreated or troglitazone-treated mice
# ob/ob mice [2] = assay: Antihyperglycemic activity and serum parameters in ob/ob mice; type: in vivo; set-up: decrease in triglyceride as compared to the control / lowering of FFA compared to the control / decrease in the GHb level compared to the control / reduction of serum insulin / reduction of triglycerides / reduction of free fatty acid (FFA) levels: concentration or dose not given beside the values
# Human PPAR-γ2 = molecular target: T1, Human PPAR-γ2 (Homo sapiens, UniProt P37231); assay: PPAR-gamma mediated transactivation of PPRE-luciferase reporter; type: cell-based
# T1 construct: inserting the PPARγ2 cDNA coding region into pcDNA3.1+ vector; expressed in transfected cells; host or cells: HEK293 cells (ATCC)
# T1 sequence (P37231 1-505): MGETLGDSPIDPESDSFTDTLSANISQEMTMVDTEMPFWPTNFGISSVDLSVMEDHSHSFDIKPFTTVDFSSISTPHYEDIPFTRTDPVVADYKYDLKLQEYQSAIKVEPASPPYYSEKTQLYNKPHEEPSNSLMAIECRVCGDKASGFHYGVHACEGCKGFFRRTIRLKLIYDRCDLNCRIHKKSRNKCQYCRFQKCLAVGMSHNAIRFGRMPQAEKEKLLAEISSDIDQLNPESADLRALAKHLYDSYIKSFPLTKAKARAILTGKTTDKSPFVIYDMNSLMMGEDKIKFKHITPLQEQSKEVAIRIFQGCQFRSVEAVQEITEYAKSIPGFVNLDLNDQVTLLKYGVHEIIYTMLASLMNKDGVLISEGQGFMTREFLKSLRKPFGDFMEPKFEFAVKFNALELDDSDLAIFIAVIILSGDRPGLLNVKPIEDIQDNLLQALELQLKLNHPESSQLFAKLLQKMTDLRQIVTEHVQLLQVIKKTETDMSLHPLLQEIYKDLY
# Experimental: Human PPAR-γ2 expression vector was constructed by inserting PPAR-γ2 encoding region into pcDNA3.1+ vector (Invitrogen, Carlsbad, Calif.). Luciferase reporter vector was constructed by ligating PPRE response element adjacent to the upstream of Firefly luciferase coding region. Control vector, pRL-SV40 expressing Renilla luciferase was purchased from Promega (Madison, Wis.).
# About 2.7×10^4 293 cells (ATCC, Manassas, Va.) were plated into a 35 mm culture well and maintained in Eagle's Minimal Essential Medium (ATCC, Manassas, Va.) supplemented with 10% heat inactivated horse serum (ATCC, Manassas, Va.) for 24 hours. Expression, reporter and control vectors (2.5 ng control and 100 ng others per culture well) were transfected by LI[…]™ Reagent (Invitrogen, Carlsbad, Calif.). Transfection reagent and DNA were prepared according to manufacture's recommendations and incubated with cells for 3 hours followed by adding equal volume EMEM supplemented with 20% horse serum. Twenty-four hours after transfection, cells were treated with vehicle or compounds at indicated final concentration for 24 hours. Final concentration of vehicle was 0.001% DMSO (Sigma, ST Louis, Mo.) in medium. Vehicle and compound treatment were all conducted in triplicate. Each culture well was then assayed for a response characterized by increased Firefly luciferase activity normalized with Renilla luciferase activity.
# Assays for Firefly luciferase activity and Renilla luciferase activity followed the standard protocol of Dual-luciferase Reporter® Assay System (Promega, Madison, Wis.). Briefly, 400 μl Passive Lysis Buffer was added into each culture well and all wells were placed on a shaker for 15 minutes. Five μl cell lysate of each well was added to a reaction tube. Luciferase reagent II and Stop & Glo® were injected into the reaction tube sequentially by Sirius Luminometer (Berthold Detection Systems, Pforzheim, Germany). Final reporter activity was calculated as the ratio of Firefly luciferase activity over by Renilla luciferase activity.
# Human PPARγ2 expression vector was constructed by inserting the PPARγ2 cDNA coding region into pcDNA3.1+ vector (Invitrogen, Carlsbad, Calif.). The PPRE-luciferase reporter gene was the kind gift of Dr. Kenneth Feingold. The control vector, pRL-SV40 containing the Renilla luciferase cDNA was purchased from Promega (Madison, Wis.). About 2.7×10^4 HEK293 human embryonal kidney cells (ATCC) were plated into a 35-mm tissue culture dish and maintained in Eagle Modified Essential Medium (EMEM, ATCC) containing 10% heat-inactivated horse serum for 24 h. Expression, reporter (100 ng/dish) and control (2.5 ng/dish) vectors were transfected using LI[…]™ Reagent (GibcoBRL) according to manufacturer's recommendation. At 24 h after transfection, cells were treated with vehicle (0.001% DMSO in medium) or compounds at the indicated concentration and incubated for 24 h. Each treatment was conducted in triplicate. Each culture dish was assayed for firefly luciferase activity normalized by Renilla luciferase activity to account for differences in transfection efficiency. Luciferase activity was measured using the Dual-luciferase Reporter® Assay System (Promega) and a Sirius luminometer (Berthold Detection System, Pforzheim, Germany).
# 3T3-L1 fibroblasts = assay: Adipogenesis (triglyceride accumulation) in 3T3-L1 fibroblasts
# Experimental: After two days of growth in 6-well plates, cells were treated either with vehicle (0.1% DMSO) or with compounds for ten days. Fresh medium with compounds or vehicle was replenished every 48 h. Cells were washed with PBS twice and fixed in 10% formalin (Sigma) in PBS. After washing in PBS, cells were stained with freshly diluted Oil Red O in isopropanol for 1 h at room temperature. The cells were washed five times with PBS and visualized under an Olympus BH2 microscope. Quantitative accumulation of triglyceride was also measured under similar experimental conditions, except in this case cells were plated in 100-mm tissue culture dishes. Triglyceride was extracted with methanol:chloroform (2:1) mixture. […] Extracted triglyceride was measured by a colorimetric assay (GPO-Trinder, Sigma) according to manufacturer instructions.
# After 14 days cells were stained with Oil Red O, counterstained with methylene blue for visual assessment (FIG. 23B) and assayed for triglyceride accumulation.
# TNF-alpha = assay: LPS-induced TNF-alpha production in RAW cells (ELISA); type: cell-based; settings: RAW cells, 0.1, 1, 10, 50 or 100 pM, 1 hour preincubation, LPS 6 hours, FIG. 9
# [3] = after fourteen days of treatment, p<0.05 vs vehicle
# [4] = ob/ob mice, 50 mg/kg, 14 days, FIG. 17A
smiles,measurement,setting,value
"COC(=O)C(=Cc1cc(OC)cc(OC)c1)c1ccc(Oc2ccc(CC3SC(=O)NC3=O)cc2)cc1 (centres unmarked) [Compound 11, 3-(3,5-Dimethoxyphenyl)-2-{4-[4-(2,4-dioxothiazolidin-5-ylmethyl)-phenoxy]-phenyl}-acrylic acid methyl ester]","14C-glucose incorporated into glycogen, dose response",HepG2 cells; FIG. 25A,dose-dependent increase
same,maximal increase in glycogen synthesis over baseline,"HepG2 cells; at 48 to 72 h, FIG. 25B",3.1 fold
same,amelioration of EAE (clinical score),SJL-/J mice,highly effective
same,AST level,ob/ob mice [1]; FIG. 7A,not elevated
same,ALT level,ob/ob mice [1]; FIG. 7B,did not elevate
same,reduction of free fatty acid (FFA) levels,ob/ob mice [2]; [3],33%
same,reduction of serum insulin,ob/ob mice [2]; [3],58%
same,reduction of triglycerides,ob/ob mice [2]; [3],65%
same,glycosylated hemoglobin after treatment,"ob/ob mice [2]; after fourteen days of treatment, reduced from 5.2%, p=0.15, FIG. 18",3.8%
same,dose response of glucose lowering,"ob/ob mice [2]; ob/ob mice (n=8), three different doses, FIG. 19",dose dependent glucose lowering effect
same,weight gain in treated and control animals,"ob/ob mice [2]; ob/ob mice, 50 mg/kg oral once daily, 8 to 9 days",similar
same,decrease in blood glucose levels,"ob/ob mice [2]; ob/ob mice, 50 mg/kg oral once daily, 8 to 9 days, FIG. 21",59 % vs. baseline
same,normalization of blood glucose levels,ob/ob mice [2]; [4],normalized by three days
same,time to significant decrease of blood glucose levels,ob/ob mice [2]; [4],≤ 48 h
same,body weight compared to vehicle treated group,"ob/ob mice [2]; ob/ob mice, 50 mg/kg, 14 days, FIG. 17B",did not see any increase
same,drop of serum insulin,"ob/ob mice [2]; ob/ob mice, after 10 days of treatment, FIG. 6A",58%
same,lowering of FFA compared to the control,"ob/ob mice [2]; ob/ob mice, after 10 days of treatment, FIG. 6C",33%
same,decrease in the GHb level compared to the control,"ob/ob mice [2]; ob/ob mice, after 14 days of treatment, FIG. 6D",1.3%
same,decrease in triglyceride as compared to the control,"ob/ob mice [2]; ob/ob mice, after treatment for 10 days, FIG. 6B",65%
same,drop in blood glucose level,"ob/ob mice [2]; ob/ob mice, oral 50 mg/kg, 15 days, FIG. 2A",62%
same,"body weight, control vs treatment group","ob/ob mice [2]; ob/ob mice, oral 50 mg/kg, FIG. 2B",no significant increase
same,in vivo potency relative to rosiglitazone on a mole-per-mole basis (more potent),"ob/ob mice [2]; ob/ob mice, same glucose lowering at 10 mg/kg",46%
same,transactivation potency less than that of rosiglitazone,Human PPAR-γ2,≤ 30 fold
same,EC50,"Human PPAR-γ2; HEK293 cells, human PPAR-gamma2, ± SE, n=5, FIG. 24, read-out: EC50 for transactivation of PPRE-Luc reporter",0.284 ± 0.036 µM
same,EC50,"Human PPAR-γ2; cells transfected with human PPAR-gamma2, 24 hours, non-linear regression, read-out: EC50, induction of PPAR-γ mediated luciferase activity",0.28 µM
same,"PPAR-gamma transactivation potency relative to a comparator, in words",Human PPAR-γ2; in vitro transactivation assay,approximately one-thirtieth the activity of rosiglitazone
same,"maximal triglyceride accumulated, increase over control","3T3-L1 fibroblasts; 3T3-L1 fibroblasts, 0.1, 1, 10 μM, no dexamethasone, insulin, IBMX, FIG. 23A",3.96 fold
same,cytotoxic concentrations,"3T3-L1 fibroblasts; 3T3-L1 system, data not shown",≥ 100 µM
same,inhibition of LPS-induced TNF-alpha production,TNF-alpha,better inhibitor of TNF-alpha than rosiglitazone
